Experimental data from publication PMC10224004, “Modulation of Distribution and Diffusion through the Lipophilic Membrane with Cyclodextrins Exemplified by a Model Pyridinecarboxamide Derivative” (Pharmaceutics, 2023).
Read-outs that look alike come from different tables or passages of the source.

Columns and labels:
[1] = Shake-flask solubility in 1-octanol and dissolution thermodynamics; assay type: physicochemical; conditions: for solubility higher in 1-octanol than in n-hexane: 310.2 K, ratio of molar solubilities
Description: (§1) The solubility of the investigated drugs in 1-octanol and n-hexane was determined by the shake-flask technique. To this end, the glass vials containing the solutions with the excess amount of the compound were placed in an air thermostat and stirred at a predetermined temperature for no less than 24 h (equilibrium state). After this, the suspensions were left for 5 h or more to precipitate the undissolved drug and centrifuged (Biofuge pico, Thermo Electron LED GmbH, Langenselbold, Germany) at a predetermined temperature during 20 min (10,000 rpm). The aliquots of the clear solutions were taken and examined via a spectrophotometer (Cary-50 Varian, Palo Alto, CA, USA, Software Version 3.00 (339)). The molar concentrations of the compounds in the solvents were calculated using calibration curves at the appropriate wavelength characteristic for each substance. The experimental results were reported as an average of at least three replicated experiments with an accuracy of 2–4%. In order to evaluate the thermodynamic parameters of the IPN dissolution in 1-octanol and n-hexane, the molar solubility ( S2 ) was recalculated to the mole fraction ( X2 ) by the equation:(1) X2=M2S2/S2(M1−M2)+1000ρ, where M1 and M2 are the molar masses of IPN and organic solvent, respectively, and ρ (g∙cm^−3) is the density of the pure solvents. The linear functions describing the temperature dependences of the solubility within the temperature interval from 293.2 ± 0.5 K to 313.2 ± 0.5 K for both organic solvents were derived:(2) lnX2=A+B/T
(§2) The apparent solution enthalpies ΔHsol0 were determined by the van’t Hoff equation:(3) ∂(lnX2)/∂T=ΔHsol0/RT^2
(§3) The apparent dissolution Gibbs energies ( ΔGsol ) and entropies ( ΔSsol ) were calculated at a standard temperature of 298.2 K and 310.2 K:(4) ΔGsol298.2/310.2=−RT(lnX2298.2/310.2) (5) ΔGsol298.2/310.2=ΔHsol0−TΔSsol298.2/310.2 where R is the universal gas constant.

[2] = PermeaPad barrier, 310.2 K, cited from earlier work
[3] = set-up: method as in doi:10.1016/j.jct.2015.08.022; conditions: cited from earlier work
[4] = Shake-flask distribution in the n-hexane/buffer pH 7.4 system; assay type: physicochemical; conditions: for logDapphex/buff / Dapphex/buff ·10^4: 310.2 K; for logDapphex/buff: cyclodextrin in buffer phase as in the label; for Dapphex/buff ·10^4: value = D·10^4, cyclodextrin in buffer phase as in the label; for Molar concentration C2 buf/hex ∙10^3 (aqueous phase): V(hex):V(buf)= 6:3 without and 10:3 with cyclodextrins, molar concentration × 10^3
Description: (§4) Apparent distribution coefficients of the compounds were measured in two systems: 1-octanol/buffer pH 7.4 and n-hexane/buffer pH 7.4 by the shake-flask technique at 310.2 ± 0.5 K in the absence (for IPN, INZ and iNAM) and in the presence of cyclodextrins (HP-β-CD and M-β-CD) in the aqueous phase (for IPN only). The concentrations of cyclodextrins were: 0.0115 M, 0.025 M and 0.035 M. The experiments were carried out according to the literature. In brief, the following experimental procedure was performed. Aqueous buffer pH 7.4 and organic solvent (1-octanol or n-hexane) were mixed during 48 h to obtain mutually saturated phases. The stock solutions containing the drug were prepared in buffer pH 7.4 saturated with the organic solvent. Both aliquots of the aqueous stock solution and organic solvent were placed in screwed glass vials and mixed at 310.2 ± 0.5 K during 3 days. The concentrations of the stock solutions were approximately 6.0 × 10^−3 M for both systems. The volumes of the phases were 3:3 in the 1-octanol/buffer pH 7.4 systems and 6:3 and 10:3 in the n-hexane/buffer pH 7.4 systems, without and with cyclodextrins, respectively. After mixing, the equilibrium was achieved; the vials were maintained at 310.2 ± 0.5 K, and the phases were separated from each other. The drug concentrations were determined using spectrophotometer (Cary-50 Varian, Palo Alto, CA, USA, Software Version 3.00 (339)). The experiments were carried out at least four-fold with an accuracy of 2–4%. The distribution coefficients were calculated using the following equation:(6) DappOrg/buf=C2Org/buf⋅V^buf/Org/C2buf/Org⋅V^Org/buf where DappOrg/buf is the distribution coefficient calculated from the concentrations of the compounds expressed in molar scale, C2Org/buf and C2buf/Org are the molar concentrations of the drug in the mutually saturated organic solvent/buffer and buffer/organic solvent phases, respectively, and V^buf/Org and V^Org/buf are the volumes of the saturated buffer and organic solvent phases, respectively. In addition, the ΔlogD parameters were estimated taking into account the distribution coefficients both in the 1-octanol/buffer pH 7.4 and n-hexane/buffer H 7.4 systems. As Abraham et al. stated, the difference between the distribution parameters in these systems ( ΔlogD ) can be applied to assess the specific interactions including a hydrogen-bonding impact to the drug transport properties and can be calculated as follows:(7) ΔlogD=logDappoct/buf−logDapphex/buf

[5] = Shake-flask distribution in the 1-octanol/buffer pH 7.4 system; assay type: physicochemical; conditions: for Dappoct/buff / logDappoct/buff: 310.2 K, cyclodextrin in buffer phase as in the label; for Molar concentration C2 buf/oct ∙10^3 (aqueous phase) / Molar concentration C2 oct/buf ∙10^3 (organic phase): V(oct):V(buf)= 3:3, molar concentration × 10^3
Description: as §4

[6] = Shake-flask solubility in n-hexane and dissolution thermodynamics; assay type: physicochemical; conditions: T 310.2 K; value = S2 × 10^3
Description: as §1, §2, §3

[7] = ΔlogD parameter (logDapp oct/buf − logDapp hex/buf); assay type: physicochemical; conditions: 310.2 K; pH 7.4; cyclodextrin in buffer phase as in the label
Description: as §4, with “The volumes of the phases were 3:3 in the 1-octanol/buffer pH 7.4 systems and 6:3 and 10:3 in the n-hexane/buffer pH 7.4 systems, without and with cyclodextrins, respectively. After mixing, the equilibrium was achieved; the vials were maintained at 310.2 ± 0.5 K, and the phases were separated from each other.” left out, “The experiments were carried out at least four-fold with an accuracy of 2–4%.” left out, “In addition, the ΔlogD parameters were estimated taking into account the distribution coefficients both in the 1-octanol/buffer pH 7.4 and n-hexane/buffer H 7.4 systems.” left out

[8] = Membrane permeability in Franz diffusion cell; assay type: in vitro ADME; conditions: 310.2 K
Description: Membrane permeability coefficients of the studied drugs were measured in the Franz diffusion cell of vertical type (PermeGear, Inc., Hellertown, PA, USA) with 7 mL/1 mL volumes of the donor and acceptor solutions through the reverse dialysis set up. The PermeaPad barrier (PHABIOC, Fritz-Souchon-Str.27 32339 Espelkamp Germany, www.innome.de) (0.785 cm^2 effective surface area) was mounted between the donor and acceptor chambers of the diffusion cell. The temperature was maintained at 310.2 ± 0.5 K throughout the experiment. Samples of 0.5 mL were withdrawn each 30 min from the acceptor solution and replaced with an equal amount of fresh buffer. Permeability experiments lasted over five hours in all cases. The solutions concentrations were analyzed via spectrophotometer (Spectramax 190; Molecular Devices Corporation, San Jose, CA, USA) in 96-well UV black plates (Costar) at a wavelength of 264 nm and 266 nm for IPN and INZ/iNAM, respectively. The dependences of the amount of the permeated drug over the surface area (dQ/A) on time (t) were plotted and flux (J) across the membrane was calculated by the equation:(11) J=dQ/A×dt The apparent permeability coefficients (Papp) were determined by normalizing the flux measured over the concentration of the drug in the donor compartment (C0) by the equation:(12) Papp=J/C0 Each permeability experiment was carried out in triplicate.
Similarly to the distribution, the permeability coefficients were obtained in the absence (for IPN, and iNAM) and in the presence of cyclodextrins (HP-β-CD and M-β-CD) (for IPN only) in the donor solution. The concentrations of cyclodextrins were 0.0115 M, 0.025 M and 0.035 M. The permeability coefficient for INZ through the PermeaPad barrier was determined in our previous investigation and taken in the present study for the sake of comparison.

solubility higher in 1-octanol than in n-hexane [1] | logDapphex/buff [4] | Dapphex/buff ·10^4 [4] | Molar concentration C2 buf/hex ∙10^3 (aqueous phase) [4] | Dappoct/buff [5] | logDappoct/buff [5] | Molar concentration C2 buf/oct ∙10^3 (aqueous phase) [5] | Molar concentration C2 oct/buf ∙10^3 (organic phase) [5] | Molar solubility S2 × 10^3 in n-Hexane [6] | ΔlogD [7] | steady penetrate rate - flux J∙10^4 ([8]; PermeaPad barrier, pH 7.4, printed value = J × 10^4, cyclodextrin in donor solution as in the label) | Papp∙10^5 ([8]; PermeaPad barrier, pH 7.4, value = Papp × 10^5, cyclodextrin in donor solution as in the label) | Papp at 5 h ([8]; pH 7.4, PermeaPad barrier, without cyclodextrins, read-out: permeability coefficient (Papp)) | Molar solubility S2 × 10^1 in 1-Octanol ([1]; T 310.2 K, value = S2 × 10^1) | Structure (SMILES) | Papp∙10^5 ([2]; pH 7.4, value = Papp × 10^5) | permeability coefficient (Papp) ([2]; without cyclodextrins) | TΔSsol298.2 ([3]; 1-octanol, 298.2 K) | ΔGsol298.2 ([3]; 1-octanol, 298.2 K) | ΔHsol298.2 ([3]; 1-octanol, 298.2 K) | Molar solubility S2 × 10^1 in 1-Octanol ([3]; T 310.2 K, value = S2 × 10^1)
130 fold | −3.083 | 8.254 ± 0.188 ·10^4 | 9.54 ∙10^3 | 0.633 ± 0.021 | −0.199 | 5.31 ∙10^3 | 3.36 ∙10^3 | 1.37 ± 0.05 × 10^3 (M) | 2.88 |  |  |  |  | NNC(=O)c1ccncc1 [INZ, isonicotinic acid hydrazide] | 1.44±0.08 ∙10^5 (cm∙s‐1) | 14.4 ×10⁻⁶ cm/s | 2.56 kcal/mol | 3.32 kcal/mol | 5.88 kcal/mol | ^a 1.78 ± 0.04 × 10^1 (M)
115 fold | −3.241 | 5.742 ± 0.172 ·10^4 | 8.64 ∙10^3 | 0.446 ± 0.013 | −0.351 | 6.33 ∙10^3 | 2.83 ∙10^3 | 1.10 ± 0.04 × 10^3 (M) | 2.89 | 0.59 ∙10^4 (μM∙cm‐2∙s‐1) | 0.73±0.04 ∙10^5 (cm∙s‐1) | 7.3 ×10⁻⁶ cm/s | 1.26 ± 0.02 × 10^1 (M) | NC(=O)c1ccncc1 [iNAM, pyridine-4-carboxylic acid amide] |  |  |  |  |  | 
